Experimental data from ChEMBL document CHEMBL3286339, “Synthesis and in vivo SAR study of indolin-2-one-based multi-targeted inhibitors as potential anticancer agents” (Eur J Med Chem, 2014).

What was measured:
[1] = biological target: Platelet-derived growth factor receptor beta (Homo sapiens, UniProt P09619); assay: Inhibition of PDGFR-beta (unknown origin) at 1 uM relative to control
[2] = biological target: T1, Vascular endothelial growth factor receptor 3 (Homo sapiens, UniProt P35916); conditions: 1 uM
T1 sequence (P35916 whole entry): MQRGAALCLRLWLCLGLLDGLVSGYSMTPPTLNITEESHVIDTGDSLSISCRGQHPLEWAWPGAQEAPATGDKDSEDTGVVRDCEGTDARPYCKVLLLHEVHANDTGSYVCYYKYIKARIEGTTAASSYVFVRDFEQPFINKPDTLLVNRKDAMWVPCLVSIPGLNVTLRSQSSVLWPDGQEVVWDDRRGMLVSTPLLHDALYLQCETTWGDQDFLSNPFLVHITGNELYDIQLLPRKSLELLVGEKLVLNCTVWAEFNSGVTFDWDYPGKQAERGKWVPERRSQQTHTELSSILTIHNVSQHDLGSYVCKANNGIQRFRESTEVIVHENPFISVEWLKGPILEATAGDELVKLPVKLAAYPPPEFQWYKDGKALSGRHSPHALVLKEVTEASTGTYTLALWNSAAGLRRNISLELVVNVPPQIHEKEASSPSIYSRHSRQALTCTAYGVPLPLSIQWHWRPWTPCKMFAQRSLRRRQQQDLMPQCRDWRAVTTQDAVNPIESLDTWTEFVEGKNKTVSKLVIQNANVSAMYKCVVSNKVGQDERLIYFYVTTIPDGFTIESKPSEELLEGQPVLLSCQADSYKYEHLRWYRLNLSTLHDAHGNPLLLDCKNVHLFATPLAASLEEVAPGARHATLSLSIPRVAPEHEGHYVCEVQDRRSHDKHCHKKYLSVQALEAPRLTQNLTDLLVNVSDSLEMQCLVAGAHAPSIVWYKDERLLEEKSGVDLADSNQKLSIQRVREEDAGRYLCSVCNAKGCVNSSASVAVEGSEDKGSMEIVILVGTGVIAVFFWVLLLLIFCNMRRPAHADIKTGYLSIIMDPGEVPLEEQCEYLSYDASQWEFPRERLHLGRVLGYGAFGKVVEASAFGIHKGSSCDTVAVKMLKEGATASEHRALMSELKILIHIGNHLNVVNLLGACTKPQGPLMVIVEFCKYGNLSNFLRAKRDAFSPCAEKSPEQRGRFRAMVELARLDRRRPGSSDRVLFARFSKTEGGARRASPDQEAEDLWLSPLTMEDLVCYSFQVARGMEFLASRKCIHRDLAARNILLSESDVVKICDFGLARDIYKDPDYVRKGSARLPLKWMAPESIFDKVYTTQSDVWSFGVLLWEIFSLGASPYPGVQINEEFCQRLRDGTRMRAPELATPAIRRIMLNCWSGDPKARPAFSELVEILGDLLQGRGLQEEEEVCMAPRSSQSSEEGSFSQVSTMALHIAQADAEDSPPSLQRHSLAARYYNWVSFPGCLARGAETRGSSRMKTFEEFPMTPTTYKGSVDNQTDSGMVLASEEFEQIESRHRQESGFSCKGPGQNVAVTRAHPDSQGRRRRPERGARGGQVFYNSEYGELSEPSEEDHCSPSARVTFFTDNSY
Description: Inhibition of VEGFR3 (unknown origin) at 1 uM relative to control

[3] = biological target: Mast/stem cell growth factor receptor Kit (Homo sapiens, UniProt P10721); assay: Binding affinity to c-KIT (unknown origin)
Sequence of Mast/stem cell growth factor receptor Kit (P10721 whole entry): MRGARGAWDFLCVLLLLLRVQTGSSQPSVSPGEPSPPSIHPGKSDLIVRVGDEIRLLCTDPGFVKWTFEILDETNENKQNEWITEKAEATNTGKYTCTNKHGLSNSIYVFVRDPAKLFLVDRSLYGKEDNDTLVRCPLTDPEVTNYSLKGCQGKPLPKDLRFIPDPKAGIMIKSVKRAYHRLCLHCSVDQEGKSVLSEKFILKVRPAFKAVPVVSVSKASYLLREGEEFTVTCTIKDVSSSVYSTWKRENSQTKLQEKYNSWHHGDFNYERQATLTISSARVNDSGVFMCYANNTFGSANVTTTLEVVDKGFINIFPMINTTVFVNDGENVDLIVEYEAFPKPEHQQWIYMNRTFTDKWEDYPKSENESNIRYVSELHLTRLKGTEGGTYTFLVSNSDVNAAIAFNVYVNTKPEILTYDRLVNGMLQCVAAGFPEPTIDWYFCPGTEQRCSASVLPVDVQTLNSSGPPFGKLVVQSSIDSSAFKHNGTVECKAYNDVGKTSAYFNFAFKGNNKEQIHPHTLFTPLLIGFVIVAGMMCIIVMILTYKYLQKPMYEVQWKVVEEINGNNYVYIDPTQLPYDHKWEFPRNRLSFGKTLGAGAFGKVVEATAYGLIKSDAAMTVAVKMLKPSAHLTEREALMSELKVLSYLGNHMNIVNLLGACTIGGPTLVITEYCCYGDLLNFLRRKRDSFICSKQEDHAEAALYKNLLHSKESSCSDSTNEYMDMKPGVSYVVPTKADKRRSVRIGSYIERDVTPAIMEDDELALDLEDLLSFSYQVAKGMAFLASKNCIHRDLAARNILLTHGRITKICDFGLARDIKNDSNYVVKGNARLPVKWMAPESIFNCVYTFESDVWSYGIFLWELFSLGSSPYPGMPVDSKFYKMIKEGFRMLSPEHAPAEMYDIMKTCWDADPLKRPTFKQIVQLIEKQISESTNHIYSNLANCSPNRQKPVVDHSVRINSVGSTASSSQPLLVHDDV

[4] = biological target: T2, Fibroblast growth factor receptor 3 (Homo sapiens, UniProt P22607); conditions: 1 uM
Description: Inhibition of FGFR3 (unknown origin) at 1 uM relative to control

[5] = test system: Mus musculus; assay: Toxicity in BALB/c nude mouse xenografted with human HT-29 cells assessed as change in body weight at 80 mg/kg/day administered qd relative to control; assay type: organism-based; conditions: in vivo
[6] = biological target: Phosphorylase b kinase gamma catalytic chain, liver/testis isoform (Homo sapiens, UniProt P15735); assay: Binding affinity to PHKgamma2 (unknown origin)
[7] = biological target: Vascular endothelial growth factor receptor 2 (Homo sapiens, UniProt P35968); conditions: 1 uM
Description: Inhibition of VEGFR2 (unknown origin) at 1 uM relative to control

[8] = biological target: T2, Fibroblast growth factor receptor 3; assay: Binding affinity to FGFR3 (unknown origin)
[9] = biological target: Tyrosine-protein kinase ABL1 (Homo sapiens, UniProt P00519); assay: Binding affinity to ABL (unknown origin)
[10] = biological target: Vascular endothelial growth factor receptor 1 (Homo sapiens, UniProt P17948); assay: Inhibition of VEGFR1 (unknown origin) at 1 uM relative to control
[11] = biological target: ALK tyrosine kinase receptor (Homo sapiens, UniProt Q9UM73); conditions: 1 uM
Sequence of ALK tyrosine kinase receptor (Q9UM73 19-1620 limits assumed): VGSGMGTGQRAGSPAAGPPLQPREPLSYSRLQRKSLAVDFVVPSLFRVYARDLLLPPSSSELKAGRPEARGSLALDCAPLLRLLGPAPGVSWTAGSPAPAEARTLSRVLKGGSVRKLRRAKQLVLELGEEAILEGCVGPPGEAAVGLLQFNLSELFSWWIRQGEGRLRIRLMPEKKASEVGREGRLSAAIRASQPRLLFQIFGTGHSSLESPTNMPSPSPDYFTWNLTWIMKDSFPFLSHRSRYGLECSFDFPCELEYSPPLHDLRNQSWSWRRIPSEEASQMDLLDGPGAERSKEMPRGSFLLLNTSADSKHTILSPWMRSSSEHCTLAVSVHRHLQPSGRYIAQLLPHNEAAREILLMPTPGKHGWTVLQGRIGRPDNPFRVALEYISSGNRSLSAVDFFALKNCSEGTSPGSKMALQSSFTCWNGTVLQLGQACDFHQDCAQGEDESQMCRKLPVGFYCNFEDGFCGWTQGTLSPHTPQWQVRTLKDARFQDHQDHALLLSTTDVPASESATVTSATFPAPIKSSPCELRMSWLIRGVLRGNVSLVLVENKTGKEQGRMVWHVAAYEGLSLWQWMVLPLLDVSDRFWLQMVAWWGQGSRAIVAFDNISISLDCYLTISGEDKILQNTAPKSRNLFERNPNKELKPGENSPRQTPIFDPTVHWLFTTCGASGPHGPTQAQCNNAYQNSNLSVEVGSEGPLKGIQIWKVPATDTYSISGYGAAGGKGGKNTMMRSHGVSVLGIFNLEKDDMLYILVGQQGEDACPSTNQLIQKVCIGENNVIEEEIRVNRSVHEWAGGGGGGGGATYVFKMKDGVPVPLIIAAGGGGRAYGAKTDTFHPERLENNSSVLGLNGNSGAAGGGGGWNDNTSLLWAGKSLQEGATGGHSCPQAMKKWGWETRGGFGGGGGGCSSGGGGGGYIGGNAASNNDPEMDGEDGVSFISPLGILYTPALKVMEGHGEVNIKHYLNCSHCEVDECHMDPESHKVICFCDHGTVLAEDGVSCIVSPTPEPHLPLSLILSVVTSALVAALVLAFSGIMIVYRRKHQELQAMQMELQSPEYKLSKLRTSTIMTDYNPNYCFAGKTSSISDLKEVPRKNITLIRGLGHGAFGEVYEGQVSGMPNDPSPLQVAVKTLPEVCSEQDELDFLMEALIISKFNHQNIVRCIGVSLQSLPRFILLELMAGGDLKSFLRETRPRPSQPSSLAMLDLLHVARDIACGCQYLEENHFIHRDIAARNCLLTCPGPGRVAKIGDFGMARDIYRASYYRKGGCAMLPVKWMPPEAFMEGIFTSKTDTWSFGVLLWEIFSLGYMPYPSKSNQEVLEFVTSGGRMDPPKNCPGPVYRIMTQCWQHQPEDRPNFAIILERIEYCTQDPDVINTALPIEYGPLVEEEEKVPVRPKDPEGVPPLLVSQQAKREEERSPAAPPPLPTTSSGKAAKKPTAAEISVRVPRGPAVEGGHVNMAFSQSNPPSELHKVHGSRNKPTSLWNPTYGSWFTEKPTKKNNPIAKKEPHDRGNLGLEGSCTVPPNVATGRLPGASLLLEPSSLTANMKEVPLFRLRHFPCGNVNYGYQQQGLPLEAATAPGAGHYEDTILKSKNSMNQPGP
Description: Inhibition of ALK (unknown origin) at 1 uM relative to control

[12] = biological target: Tyrosine-protein kinase Fyn (Homo sapiens, UniProt P06241); assay: Binding affinity to FYN (unknown origin)
[13] = biological target: T1, Vascular endothelial growth factor receptor 3; assay: Binding affinity to VEGFR3 (unknown origin)
[14] = test system: Mus musculus; assay: Toxicity in BALB/c nude mouse xenografted with human NCI-H460 cells assessed as hematuria at 40 mg/kg/day administered qd; assay type: organism-based; conditions: in vivo
[15] = biological target: Tyrosine-protein kinase ABL2 (Homo sapiens, UniProt P42684); assay: Inhibition of ARG (unknown origin) at 1 uM relative to control

Sequence of Platelet-derived growth factor receptor beta (P09619 whole entry): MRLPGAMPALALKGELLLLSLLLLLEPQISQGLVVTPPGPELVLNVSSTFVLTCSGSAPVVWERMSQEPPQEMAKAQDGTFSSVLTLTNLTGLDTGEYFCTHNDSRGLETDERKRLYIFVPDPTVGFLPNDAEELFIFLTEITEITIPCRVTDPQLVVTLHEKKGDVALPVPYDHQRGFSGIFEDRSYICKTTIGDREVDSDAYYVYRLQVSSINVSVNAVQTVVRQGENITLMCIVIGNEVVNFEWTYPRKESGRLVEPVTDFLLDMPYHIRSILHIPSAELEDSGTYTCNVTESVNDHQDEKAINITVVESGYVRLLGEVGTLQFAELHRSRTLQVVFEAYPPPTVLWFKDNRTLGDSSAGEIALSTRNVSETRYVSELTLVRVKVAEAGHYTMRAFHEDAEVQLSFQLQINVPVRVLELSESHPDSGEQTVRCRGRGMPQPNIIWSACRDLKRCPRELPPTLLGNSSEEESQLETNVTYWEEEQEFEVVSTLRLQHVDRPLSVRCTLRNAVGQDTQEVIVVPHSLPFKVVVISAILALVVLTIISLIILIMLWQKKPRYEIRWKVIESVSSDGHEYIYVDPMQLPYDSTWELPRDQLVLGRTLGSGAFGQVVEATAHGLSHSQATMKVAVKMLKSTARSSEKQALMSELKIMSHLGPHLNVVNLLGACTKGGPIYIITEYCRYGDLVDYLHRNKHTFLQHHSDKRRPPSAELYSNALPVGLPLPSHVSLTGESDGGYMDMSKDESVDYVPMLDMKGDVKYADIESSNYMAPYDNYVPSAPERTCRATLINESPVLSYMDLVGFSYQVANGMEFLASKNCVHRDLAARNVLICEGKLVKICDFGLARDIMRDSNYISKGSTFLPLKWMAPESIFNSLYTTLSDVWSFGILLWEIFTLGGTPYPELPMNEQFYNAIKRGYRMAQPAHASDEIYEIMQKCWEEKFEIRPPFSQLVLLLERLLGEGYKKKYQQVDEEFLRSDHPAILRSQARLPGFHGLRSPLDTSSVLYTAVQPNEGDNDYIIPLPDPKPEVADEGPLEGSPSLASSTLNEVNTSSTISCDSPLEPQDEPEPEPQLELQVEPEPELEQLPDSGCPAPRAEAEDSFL

- inhibition [1]: 79%
- inhibition [2]: 99%
- Ki [3]: 0.2 µM
- inhibition [4]: 91%
- Ki [6]: 0.84 µM
- inhibition [7]: 99%
- Ki [8]: 0.089 µM
- Ki [9]: 0.12 µM
- inhibition [10]: 52%
- inhibition [11]: 87%
- Ki [12]: 1.8 µM
- Ki [13]: < 0.0003 µM
- inhibition [15]: 76%
Compound: Cc1[nH]c(/C=C2\C(=O)Nc3ccc(F)cc32)c(C)c1NC(=O)CCN1CCN(C)CC1
- Activity [5]: 6.2%
- Activity [14]: Non-toxic
